Results: ChEMBL document CHEMBL1201862, “PubChem BioAssay data set” (2004)
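Following 48 hours of exposure in 96-well plates, responses at five concentrations were used to interpolate endpoints linearly. GI50 = concentration required for 50% inhibition of growth.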 The source made the active and inactive calls. No stated cut-off is given here; in the data, active = GI50 up to about 1.1 µM and inactive = higher.

Key:
Test in all cases: inhibition of tumour cell growth, NCI panel, 48 h
786-0 = system: 786-0
A549 = system: A549
ACHN = system: ACHN
BT-549 = system: BT-549
CAKI-1 = system: CAKI-1
CCRF-CEM = system: CCRF-CEM
COLO 205 = system: COLO 205
DU-145 = system: DU-145
EKVX = system: EKVX
HCT-116 = system: HCT-116
HCT-15 = system: HCT-15
HL-60 = system: HL-60
HOP-62 = system: HOP-62
HOP-92 = system: HOP-92
HT-29 = system: HT-29
Hs-578T = system: Hs-578T
IGROV-1 = system: IGROV-1
K562 = system: K562
KM12 = system: KM12
LOX IMVI = system: LOX IMVI
M14 = system: M14
MCF7 = system: MCF7
MDA-MB-435 = system: MDA-MB-435
MDA-N = system: MDA-N
MOLT-4 = system: MOLT-4
Malme-3M = system: Malme-3M
NCI-H226 = system: NCI-H226
NCI-H23 = system: NCI-H23
NCI-H460 = system: NCI-H460
NCI-H522 = system: NCI-H522
NCI/ADR-RES = system: NCI/ADR-RES
OVCAR-3 = system: OVCAR-3
OVCAR-4 = system: OVCAR-4
OVCAR-5 = system: OVCAR-5
OVCAR-8 = system: OVCAR-8
PC-3 = system: PC-3
RPMI-8226 = system: RPMI-8226
SF-268 = system: SF-268
SF-295 = system: SF-295
SK-MEL-28 = system: SK-MEL-28
SK-MEL-5 = system: SK-MEL-5
SK-OV-3 = system: SK-OV-3
SN12C = system: SN12C
SNB-19 = system: SNB-19
SNB-75 = system: SNB-75
SR = system: SR
SW-620 = system: SW-620
T47D = system: T47D
TK-10 = system: TK-10
U-251 = system: U-251
UACC-257 = system: UACC-257
UACC-62 = system: UACC-62
UO-31 = system: UO-31
A498 = system: A498
HCC 2998 = system: HCC 2998
MDA-MB-231 = system: MDA-MB-231
RXF 393 = system: RXF 393
SF-539 = system: SF-539
SK-MEL-2 = system: SK-MEL-2

In the case of O=C(NC(Cc1ccccc1)P(=O)(O)c1ccccc1)OCc1ccccc1 (stereo unspecified), the GI50 (786-0) is reported as > 100 µM (inactive), the GI50 (A549) is reported as > 100 µM (inactive) and the GI50 (ACHN) is reported as > 100 µM (inactive). The GI50 (BT-549) was > 100 µM (inactive), the GI50 (CAKI-1) was > 100 µM (inactive) and the GI50 (CCRF-CEM) was > 100 µM (inactive). For the same molecule, the GI50 (COLO 205) was > 100 µM (inactive), the GI50 (DU-145) was > 100 µM (inactive) and the GI50 (EKVX) was > 100 µM (inactive). The GI50 (HCT-116) was > 100 µM (inactive), the GI50 (HCT-15) was greater than 100 µM and the GI50 (HL-60) was > 100 µM (inactive). The GI50 (HOP-62) was > 100 µM (inactive), the GI50 (HOP-92) was > 100 µM (inactive) and the GI50 (HT-29) was > 100 µM (inactive). For the same molecule, the GI50 (Hs-578T) was > 100 µM (inactive), the GI50 (IGROV-1) was > 100 µM (inactive) and the GI50 (K562) was > 100 µM (inactive). The GI50 (KM12) was > 100 µM (inactive), the GI50 (LOX IMVI) was > 100 µM (inactive) and the GI50 (M14) was > 100 µM (inactive). The GI50 (MCF7) was > 100 µM (inactive), the GI50 (MDA-MB-435) was > 100 µM (inactive) and the GI50 (MDA-N) was > 100 µM (inactive). For the same molecule, the GI50 (MOLT-4) was > 100 µM (inactive), the GI50 (Malme-3M) was > 100 µM (inactive) and the GI50 (NCI-H226) was > 100 µM (inactive). For the same molecule, the GI50 (NCI-H23) was > 100 µM (inactive), the GI50 (NCI-H460) was > 100 µM (inactive) and the GI50 (NCI-H522) was > 100 µM (inactive). For the same molecule, the GI50 (NCI/ADR-RES) was > 100 µM (inactive), the GI50 (OVCAR-3) was > 100 µM (inactive) and the GI50 (OVCAR-4) was > 100 µM (inactive). The GI50 (OVCAR-5) was > 100 µM (inactive), the GI50 (OVCAR-8) was > 100 µM (inactive) and the GI50 (PC-3) was > 100 µM (inactive). The GI50 (RPMI-8226) was > 100 µM (inactive), the GI50 (SF-268) was > 100 µM (inactive) and the GI50 (SF-295) was > 100 µM (inactive). The GI50 (SK-MEL-28) was > 100 µM (inactive), the GI50 (SK-MEL-5) was > 100 µM (inactive) and the GI50 (SK-OV-3) was > 100 µM (inactive). The GI50 (SN12C) was > 100 µM (inactive), the GI50 (SNB-19) was > 100 µM (inactive) and the GI50 (SNB-75) was > 100 µM (inactive). The GI50 (SR) was > 100 µM (inactive), the GI50 (SW-620) was > 100 µM (inactive) and the GI50 (T47D) was > 100 µM (inactive). For the same molecule, the GI50 (TK-10) was > 100 µM (inactive), the GI50 (U-251) was > 100 µM (inactive) and the GI50 (UACC-257) was > 100 µM (inactive). For the same molecule, the GI50 (UACC-62) was > 100 µM (inactive) and the GI50 (UO-31) was > 100 µM (inactive).
In the case of O=C1/C(=C/c2ccccc2)CCc2ccc(Cl)nc21, the GI50 (786-0) is reported as 7.18 µM (inactive), the GI50 (A498) is reported as 18.3 µM (inactive) and the GI50 (A549) is reported as 16.6 µM (inactive). The GI50 (ACHN) was 11.9 µM (inactive), the GI50 (BT-549) was 13.9 µM (inactive) and the GI50 (CAKI-1) was 3.77 µM (inactive). For the same molecule, the GI50 (CCRF-CEM) was 1.43 µM (inactive), the GI50 (COLO 205) was 19.7 µM (inactive) and the GI50 (DU-145) was 10 µM (inactive). For the same molecule, the GI50 (EKVX) was 17.9 µM (inactive), the GI50 (HCC 2998) was 17 µM (inactive) and the GI50 (HCT-116) was 2.55 µM (inactive). For the same molecule, the GI50 (HCT-15) was 3.52 µM, the GI50 (HL-60) was 0.0168 µM (active) and the GI50 (HOP-62) was 19.7 µM (inactive). The GI50 (HOP-92) was 15.8 µM (inactive), the GI50 (HT-29) was 1.92 µM (inactive) and the GI50 (IGROV-1) was 4.5 µM (inactive). The GI50 (K562) was 2.17 µM (inactive), the GI50 (KM12) was 2.59 µM (inactive) and the GI50 (LOX IMVI) was 2.19 µM (inactive). For the same molecule, the GI50 (M14) was 8.04 µM (inactive), the GI50 (MCF7) was 1.79 µM (inactive) and the GI50 (MDA-MB-231) was 15.2 µM (inactive). The GI50 (MDA-MB-435) was 6.5 µM (inactive), the GI50 (MDA-N) was 4 µM (inactive) and the GI50 (MOLT-4) was 2.28 µM (inactive). For the same molecule, the GI50 (Malme-3M) was 11 µM (inactive), the GI50 (NCI-H226) was 20.6 µM (inactive) and the GI50 (NCI-H23) was 16.6 µM (inactive). For the same molecule, the GI50 (NCI-H460) was 18.2 µM (inactive), the GI50 (NCI-H522) was 2.76 µM (inactive) and the GI50 (NCI/ADR-RES) was 19.6 µM (inactive). For the same molecule, the GI50 (OVCAR-3) was 21.8 µM (inactive), the GI50 (OVCAR-4) was 22.5 µM (inactive) and the GI50 (OVCAR-5) was 17.3 µM (inactive). The GI50 (OVCAR-8) was 7.8 µM (inactive), the GI50 (PC-3) was 11.7 µM (inactive) and the GI50 (RPMI-8226) was 2.84 µM (inactive). The GI50 (RXF 393) was 8.2 µM (inactive), the GI50 (SF-268) was 12.1 µM (inactive) and the GI50 (SF-295) was 17.2 µM (inactive). The GI50 (SF-539) was 3.61 µM (inactive), the GI50 (SK-MEL-28) was 14.7 µM (inactive) and the GI50 (SK-MEL-2) was 16.7 µM (inactive). The GI50 (SK-MEL-5) was 5.31 µM (inactive), the GI50 (SK-OV-3) was 31.6 µM (inactive) and the GI50 (SN12C) was 6.03 µM (inactive). The GI50 (SNB-19) was 15 µM (inactive), the GI50 (SNB-75) was 17.2 µM (inactive) and the GI50 (SR) was 2.8 µM (inactive). For the same molecule, the GI50 (SW-620) was 3.98 µM (inactive), the GI50 (T47D) was 4.85 µM (inactive) and the GI50 (TK-10) was 13.9 µM (inactive). The GI50 (U-251) was 3.11 µM (inactive), the GI50 (UACC-257) was 5.4 µM (inactive) and the GI50 (UACC-62) was 10.4 µM (inactive). For the same molecule, the GI50 (UO-31) was 7.64 µM (inactive).
